From PubChem BioAssay (NCI)
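In this assay, cells in 96-well plates receive the compound at five concentrations for 48 hours. Endpoints are linearly interpolated between the surrounding concentrations. TGI marks complete inhibition of growth.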

Legend:
Test in all cases: inhibition of tumour cell growth, NCI panel, 48 h
786-0 renal = system: 786-0 renal
A498 renal = system: A498 renal
A549 NSCLC = system: A549 NSCLC
ACHN renal = system: ACHN renal
CAKI-1 renal = system: CAKI-1 renal
CCRF-CEM leukemia = system: CCRF-CEM leukemia
COLO 205 colon = system: COLO 205 colon
DLD-1 colon = system: DLD-1 colon
EKVX NSCLC = system: EKVX NSCLC
HCC-2998 colon = system: HCC-2998 colon
HCT-15 colon = system: HCT-15 colon
HL-60(TB) leukemia = system: HL-60(TB) leukemia
HOP-62 NSCLC = system: HOP-62 NSCLC
HOP-92 NSCLC = system: HOP-92 NSCLC
HT29 colon = system: HT29 colon
IGROV1 ovarian = system: IGROV1 ovarian
K-562 leukemia = system: K-562 leukemia
KM12 colon = system: KM12 colon
KM20L2 colon = system: KM20L2 colon
LOX IMVI melanoma = system: LOX IMVI melanoma
LXFL 529 NSCLC = system: LXFL 529 NSCLC
M14 melanoma = system: M14 melanoma
M19-MEL melanoma = system: M19-MEL melanoma
MALME-3M melanoma = system: MALME-3M melanoma
MOLT-4 leukemia = system: MOLT-4 leukemia
NCI-H226 lung = system: NCI-H226 lung
NCI-H23 lung = system: NCI-H23 lung
NCI-H460 lung = system: NCI-H460 lung
NCI-H522 lung = system: NCI-H522 lung
OVCAR-3 ovarian = system: OVCAR-3 ovarian
OVCAR-4 ovarian = system: OVCAR-4 ovarian
OVCAR-5 ovarian = system: OVCAR-5 ovarian
OVCAR-8 ovarian = system: OVCAR-8 ovarian
RPMI-8226 leukemia = system: RPMI-8226 leukemia
RXF 393 renal = system: RXF 393 renal
SF-268 CNS = system: SF-268 CNS
SF-295 CNS = system: SF-295 CNS
SF-539 CNS = system: SF-539 CNS
SK-MEL-2 melanoma = system: SK-MEL-2 melanoma
SK-MEL-28 melanoma = system: SK-MEL-28 melanoma
SK-MEL-5 melanoma = system: SK-MEL-5 melanoma
SK-OV-3 ovarian = system: SK-OV-3 ovarian
SN12C renal = system: SN12C renal
SNB-75 CNS = system: SNB-75 CNS
SNB-78 CNS = system: SNB-78 CNS
SW-620 colon = system: SW-620 colon
TK-10 renal = system: TK-10 renal
U251 CNS = system: U251 CNS
UACC-257 melanoma = system: UACC-257 melanoma
UACC-62 melanoma = system: UACC-62 melanoma
UO-31 renal = system: UO-31 renal
XF 498 CNS = system: XF 498 CNS
BT-549 breast = system: BT-549 breast
DU-145 prostate = system: DU-145 prostate
HCT-116 colon = system: HCT-116 colon
HS 578T breast = system: HS 578T breast
MCF7 breast = system: MCF7 breast
MDA-MB-231 breast = system: MDA-MB-231 breast
MDA-MB-435 = system: MDA-MB-435
MDA-N = system: MDA-N
NCI/ADR-RES ovarian = system: NCI/ADR-RES ovarian
PC-3 prostate = system: PC-3 prostate
SNB-19 CNS = system: SNB-19 CNS
SR leukemia = system: SR leukemia
T-47D breast = system: T-47D breast
DMS 114 small cell lung = system: DMS 114 small cell lung
DMS 273 small cell lung = system: DMS 273 small cell lung
HOP-18 NSCLC = system: HOP-18 NSCLC

O=c1c2cc(Br)ccc2nc(CCl)n1-c1ccc(O)c([N+](=O)[O-])c1
TGI (786-0 renal): 31.8 µM | TGI (A498 renal): 90.2 µM | TGI (A549 NSCLC): 52.3 µM | TGI (ACHN renal): 79.9 µM | TGI (CAKI-1 renal): 49.3 µM | TGI (CCRF-CEM leukemia): 52.9 µM | TGI (COLO 205 colon): 37.8 µM | TGI (DLD-1 colon): 33.4 µM | TGI (EKVX NSCLC): 31.4 µM | TGI (HCC-2998 colon): 34.1 µM | TGI (HCT-15 colon): 41.2 µM | TGI (HL-60(TB) leukemia): 49.5 µM | TGI (HOP-62 NSCLC): 36.1 µM | TGI (HOP-92 NSCLC): 56.6 µM | TGI (HT29 colon): 68.2 µM | TGI (IGROV1 ovarian): 51.6 µM | TGI (K-562 leukemia): 48.5 µM | TGI (KM12 colon): 39.1 µM | TGI (KM20L2 colon): > 100 µM | TGI (LOX IMVI melanoma): 36.2 µM | TGI (LXFL 529 NSCLC): 39.9 µM | TGI (M14 melanoma): 50.2 µM | TGI (M19-MEL melanoma): 36.2 µM | TGI (MALME-3M melanoma): 33.4 µM | TGI (MOLT-4 leukemia): 53.5 µM | TGI (NCI-H226 lung): 29.3 µM | TGI (NCI-H23 lung): 35.8 µM | TGI (NCI-H460 lung): > 100 µM | TGI (NCI-H522 lung): 35.7 µM | TGI (OVCAR-3 ovarian): 33 µM | TGI (OVCAR-4 ovarian): 33.4 µM | TGI (OVCAR-5 ovarian): > 100 µM | TGI (OVCAR-8 ovarian): 42.2 µM | TGI (RPMI-8226 leukemia): 47.8 µM | TGI (RXF 393 renal): 25.7 µM | TGI (SF-268 CNS): 44 µM | TGI (SF-295 CNS): 31.5 µM | TGI (SF-539 CNS): 33.5 µM | TGI (SK-MEL-2 melanoma): 31.1 µM | TGI (SK-MEL-28 melanoma): 32.3 µM | TGI (SK-MEL-5 melanoma): 29.8 µM | TGI (SK-OV-3 ovarian): 93.5 µM | TGI (SN12C renal): 36 µM | TGI (SNB-75 CNS): 44 µM | TGI (SNB-78 CNS): 50.3 µM | TGI (SW-620 colon): 35.2 µM | TGI (TK-10 renal): 32.8 µM | TGI (U251 CNS): > 100 µM | TGI (UACC-257 melanoma): 48.2 µM | TGI (UACC-62 melanoma): 72.5 µM | TGI (UO-31 renal): 29.9 µM | TGI (XF 498 CNS): 29 µM

CC(=O)O[C@H]1CCc2c(cc(N)c3c2C(=O)C[C@]2(C)C([C@H](C)CCCC(C)C)CCC32C)C1(C)C (some centres not stated)
TGI (786-0 renal): > 100 µM | TGI (A498 renal): > 100 µM | TGI (A549 NSCLC): > 100 µM | TGI (ACHN renal): > 100 µM | TGI (BT-549 breast): > 100 µM | TGI (CAKI-1 renal): > 100 µM | TGI (CCRF-CEM leukemia): > 100 µM | TGI (COLO 205 colon): > 100 µM | TGI (DU-145 prostate): > 100 µM | TGI (EKVX NSCLC): > 100 µM | TGI (HCC-2998 colon): > 100 µM | TGI (HCT-116 colon): > 100 µM | TGI (HCT-15 colon): > 100 µM | TGI (HL-60(TB) leukemia): > 100 µM | TGI (HOP-62 NSCLC): > 100 µM | TGI (HOP-92 NSCLC): > 100 µM | TGI (HS 578T breast): > 100 µM | TGI (HT29 colon): > 100 µM | TGI (IGROV1 ovarian): > 100 µM | TGI (K-562 leukemia): > 100 µM | TGI (KM12 colon): > 100 µM | TGI (M14 melanoma): > 100 µM | TGI (MALME-3M melanoma): > 100 µM | TGI (MCF7 breast): > 100 µM | TGI (MDA-MB-231 breast): > 100 µM | TGI (MDA-MB-435): > 100 µM | TGI (MDA-N): > 100 µM | TGI (MOLT-4 leukemia): > 100 µM | TGI (NCI-H226 lung): > 100 µM | TGI (NCI-H23 lung): > 100 µM | TGI (NCI-H460 lung): > 100 µM | TGI (NCI-H522 lung): > 100 µM | TGI (NCI/ADR-RES ovarian): > 100 µM | TGI (OVCAR-3 ovarian): > 100 µM | TGI (OVCAR-4 ovarian): > 100 µM | TGI (OVCAR-5 ovarian): > 100 µM | TGI (OVCAR-8 ovarian): > 100 µM | TGI (PC-3 prostate): > 100 µM | TGI (RPMI-8226 leukemia): > 100 µM | TGI (RXF 393 renal): > 100 µM | TGI (SF-268 CNS): > 100 µM | TGI (SF-295 CNS): > 100 µM | TGI (SF-539 CNS): > 100 µM | TGI (SK-MEL-2 melanoma): > 100 µM | TGI (SK-MEL-28 melanoma): > 100 µM | TGI (SK-MEL-5 melanoma): > 100 µM | TGI (SK-OV-3 ovarian): > 100 µM | TGI (SN12C renal): > 100 µM | TGI (SNB-19 CNS): > 100 µM | TGI (SNB-75 CNS): > 100 µM | TGI (SR leukemia): > 100 µM | TGI (SW-620 colon): > 100 µM | TGI (T-47D breast): > 100 µM | TGI (TK-10 renal): > 100 µM | TGI (U251 CNS): > 100 µM | TGI (UACC-257 melanoma): > 100 µM | TGI (UACC-62 melanoma): > 100 µM | TGI (UO-31 renal): > 100 µM

O=C(/C=C/c1ccccc1)CC(=O)CCC(=O)Nc1ccc(Cl)cc1
TGI (786-0 renal): > 100 µM | TGI (A498 renal): > 100 µM | TGI (A549 NSCLC): > 100 µM | TGI (ACHN renal): > 100 µM | TGI (CAKI-1 renal): > 100 µM | TGI (CCRF-CEM leukemia): > 100 µM | TGI (COLO 205 colon): > 100 µM | TGI (DLD-1 colon): > 100 µM | TGI (DMS 114 small cell lung): > 100 µM | TGI (DMS 273 small cell lung): > 100 µM | TGI (EKVX NSCLC): > 100 µM | TGI (HCC-2998 colon): > 100 µM | TGI (HCT-116 colon): > 100 µM | TGI (HCT-15 colon): > 100 µM | TGI (HL-60(TB) leukemia): > 100 µM | TGI (HOP-18 NSCLC): > 100 µM | TGI (HOP-62 NSCLC): > 100 µM | TGI (HT29 colon): > 100 µM | TGI (IGROV1 ovarian): > 100 µM | TGI (K-562 leukemia): > 100 µM | TGI (KM12 colon): > 100 µM | TGI (KM20L2 colon): > 100 µM | TGI (LOX IMVI melanoma): > 100 µM | TGI (LXFL 529 NSCLC): > 100 µM | TGI (M14 melanoma): > 100 µM | TGI (M19-MEL melanoma): > 100 µM | TGI (MALME-3M melanoma): > 100 µM | TGI (MOLT-4 leukemia): > 100 µM | TGI (NCI-H226 lung): > 100 µM | TGI (NCI-H23 lung): > 100 µM | TGI (NCI-H460 lung): > 100 µM | TGI (NCI-H522 lung): > 100 µM | TGI (OVCAR-3 ovarian): > 100 µM | TGI (OVCAR-4 ovarian): > 100 µM | TGI (OVCAR-5 ovarian): > 100 µM | TGI (OVCAR-8 ovarian): > 100 µM | TGI (RPMI-8226 leukemia): > 100 µM | TGI (SF-268 CNS): > 100 µM | TGI (SF-295 CNS): > 100 µM | TGI (SF-539 CNS): > 100 µM | TGI (SK-MEL-2 melanoma): > 100 µM | TGI (SK-MEL-5 melanoma): > 100 µM | TGI (SK-OV-3 ovarian): > 100 µM | TGI (SN12C renal): > 100 µM | TGI (SNB-19 CNS): > 100 µM | TGI (SNB-78 CNS): > 100 µM | TGI (SW-620 colon): > 100 µM | TGI (TK-10 renal): > 100 µM | TGI (U251 CNS): > 100 µM | TGI (UACC-257 melanoma): > 100 µM | TGI (UACC-62 melanoma): > 100 µM | TGI (UO-31 renal): > 100 µM
